Test results: US20210275498A1, “IMIDAZOLYL ETHANAMIDE PENTANDIOIC ACID FOR USE IN THERAPY OF SYMPTOMS RELATED TO EXPOSURE TO LETHAL RADIATION” (priority 2018, published 2021)

Experiments:
Type in all cases: in vivo
[1] = tested on: C57BL/6 mice; experiment: Gross pathology and histopathology (testes degeneration, bone marrow cellularity) after whole-body irradiation; design: key to Supporting variable: Testes degradation (trend): positive trend (descriptively) +; negative trend (descriptively) −; no difference (descriptively) 0; settings: for severity of testes degradation compared to Group 2: Day 14
Source text: (§1) FIG. 13 Testes. (A): Percentage of severity of testes degeneration according to four categories (minimal, mild, moderate and marked) in group 2 (VL (POx1); 2), group 3 (ML (IPx2); 3), group 4 (ML (POx2); 4) and group 5 (ML (POx1); 5). (B): Percentage of severity of testes degeneration according to four categories (minimal, mild, moderate and marked) in group 2 (VL (POx1);2), 6 (GL (SCx1); 6) and 7 (M/GL (PO/SCx1); 7). (C): Percentage of severity of testes degeneration according to four categories (minimal, mild, moderate and marked) in group 8 (VH (POx1); 8 and 9 (MH (POx1); 9).
as §1, with “14 Bone marrow cellularity.” for “13 Testes.”, “bone marrow cellularity decrease” for “severity of testes degeneration”

[2] = tested on: C57BL/6 mice; experiment: as above; design: key to Supporting variable: Bone marrow celluarity (trend) / Supporting variable: Testes degradation (trend): positive trend (descriptively) +; negative trend (descriptively) −; no difference (descriptively) 0
[3] = tested on: C57BL/6 mice; experiment: Peripheral hematology after whole-body irradiation; design: key to Supporting variable: Hematology (trend): positive trend (descriptively) +; negative trend (descriptively) −; no difference (descriptively) 0
Source text: The primary outcome of this study was mortality and secondary outcomes were changes in hematology (peripheral and bone marrow). The endpoints were chosen to follow Animal Rule requirements that state that animal study endpoint be clearly related to the clinical benefit (generally, the enhancement of survival or prevention of major morbidity). The secondary endpoints were chosen to potentially contribute to an understanding of the disease or condition and a characterization of the treatment effect.

[4] = tested on: C57BL/6 mice; experiment: Mortality / survival to Day 30 after whole-body irradiation (5.8 Gy or 6.0 Gy)
Source text: Based on a previously reported study (Williams et al. 2010, Plett et al. 2012, Chua et al. 2014, Singh et al., 2015), the mouse model was developed to investigate LD25 and LD50. The whole-body irradiation and selected dose serve as a translational in vivo model mimicking possible radiation exposure to humans following a nuclear incident.
Animals (C57BL/6 mice) were supplied by Jackson Laboratories (Bar Harbor, Me. facility). Animals were maintained at SNBL USA (Everett, Wash. facility) as stock prior to study assignment and were screened for health by veterinary staff prior to use on study. 205 animals were assigned to treatment groups.
Oral application of Myelo001 would be conducive for nuclear or other radiation incidents and was chosen for this study. […] The human equivalent dose is estimated to be 4 mg/kg based on allometric calculations.
(§2) Based on the ARS Scoring SNBL SOP, if the sum of the three parameter scores totaled 8 or higher, the animal was considered moribund and was euthanized with an unscheduled necropsy performed according to the moribund animal SOP.
Cageside mortality checks were conducted per SOP, twice daily after Day −3. Morning and afternoon checks began 2 to 3 hours after the completion of the respective ARS scorings. Individual assessments were only documented for apparently moribund animals by re-scoring, or for found dead animals by removal.
Survival data were summarized descriptively and graphically using the Kaplan-Meier method. Further, death rates were tabulated by treatment. The equality of two or more survivor curves was tested with log rank tests. In addition, Cox-regression models were used to estimate hazard ratios, p-values and 95% confidence intervals (95% CI).
The focus of the survival analysis is irradiation related death between irradiation on Day 0 and Day 30. Thus, the scheduled necropsies on Day 7 and Day 14 or deaths unrelated to radiation (Animals 2041, 9012 and 9021) were considered as censored events.

[5] = tested on: C57BL/6 mice; experiment: ARS scoring (posture, coat, behavior) after whole-body irradiation; design: key to Supporting variable: ARS scores (trend): positive trend (descriptively) +; negative trend (descriptively) −; no difference (descriptively) 0; settings: for ARS posture score, most frequent grade (mode): control group 2 mild
Description: Scores on a scale of 1 to 4 (minimal, mild, moderate and severe) for posture, coat, and behavior were recorded twice daily per SNBL SOP, beginning on Day −3, except on the day of scheduled necropsy when scoring occurred only once. Observations were performed by 5 individuals during the course of the study.
After Day 0, the first ARS scoring began in the morning and the second ARS scoring began 4 to 6 hours following the completion of the morning ARS scoring. On the day of scheduled necropsy, ARS scoring occurred in the morning, prior to necropsy.
as §2

[6] = Group 3 ML (IPx2): 25 mg/kg IP, Day −3 to 0 (6x), prophylactic, 5.8 Gy
[7] = Group 4 ML (POx2): 25 mg/kg per os, Day −3 to 0 (6x), prophylactic, 5.8 Gy
[8] = Group 5 ML (POx1): 50 mg/kg per os SID Day −2, −1, 0, prophylactic, 5.8 Gy
[9] = Group 9 MH (POx1): 50 mg/kg per os SID Day 1, 2, 3, therapeutic, 6.0 Gy

SMILES: O=C(O)CCCC(=O)NCCc1c[nH]cn1 [Myelo001, 5-{[2-(1H-imidazol-4-yl)ethyl]amino}-5-oxo-pentanoic acid]
- severity of testes degradation compared to Group 2 [1, 6]: reduced
- severity of testes degradation compared to Group 2 [1, 7]: reduced
- severity of testes degradation compared to Group 2 [1, 8]: reduced
- Supporting variable: Testes degradation (trend) [1, 7]: +
- Supporting variable: Testes degradation (trend) [1, 8]: +
- Supporting variable: Testes degradation (trend) [1, 9]: +
- testes degeneration, proportion by severity category ([2]; Day 14, n.s. (p=0.264), Group 9 MH (POx1): 50 mg/kg per os SID Day 1, 2, 3, therapeutic, 6.0 Gy): higher proportion of testes in minimal category
- decreased cellularity of the bone marrow of both sternum and femur compared to vehicle-treated control Group 8 ([2]; Day 14 and 30 necropsies, Group 9 MH (POx1): 50 mg/kg per os SID Day 1, 2, 3, therapeutic, 6.0 Gy): lower severity of decreased cellularity
- bone marrow cellularity decrease, category ([2]; Day 30, Group 3 ML (IPx2): 25 mg/kg IP, Day −3 to 0 (6x), prophylactic, 5.8 Gy): minimal category
- Supporting variable: Bone marrow celluarity (trend) [2, 6]: +
- Supporting variable: Testes degradation (trend) [2, 6]: +
- decrease of bone marrow cellularity [2, 7]: did not show any significant changes
- Supporting variable: Bone marrow celluarity (trend) [2, 8]: −
- decrease of bone marrow cellularity [2, 8]: did not show any significant changes
- Supporting variable: Bone marrow celluarity (trend) [2, 9]: +
- organ weights data ([2]; all test article groups): no test article-related changes
- hemoglobin, red blood cells, hematocrit compared to group 8 ([3]; Day 14 and Day 30, Group 9 MH (POx1): 50 mg/kg per os SID Day 1, 2, 3, therapeutic, 6.0 Gy): in favor of group 9
- Supporting variable: Hematology (trend) [3, 7]: 0
- Dead (irradiation related deaths) [4, 6]: 3
- Irradiation related death rate, Rate (per 100 Days) [4, 6]: 1.30 per 100 Days
- Survival after 30 days (Kaplan-Meier estimate) [4, 6]: 0.54
- Time at Risk [4, 6]: 231 days
- Time to 10% death, Time [4, 6]: 13 days
- Hazard ratio (Cox regression, risk of radiation induced death) ([4]; Group 3 ML (IPx2): 25 mg/kg IP, Day −3 to 0 (6x), prophylactic, 5.8 Gy, reference group VL (POx1), 2): 2.48
- Quantity ratio of survival probability (dose reduction factor, DRF), day 30, relative to control group ([4]; Group 3 ML (IPx2): 25 mg/kg IP, Day −3 to 0 (6x), prophylactic, 5.8 Gy, vs VL (POx1), 2): 0.7
- Dead (irradiation related deaths) [4, 7]: 6
- Irradiation related death rate, Rate (per 100 Days) [4, 7]: 0.96 per 100 Days
- Time at Risk [4, 7]: 627 days
- Time to 10% death, Time [4, 7]: 15 days
- Hazard ratio (Cox regression, risk of radiation induced death) ([4]; Group 4 ML (POx2): 25 mg/kg per os, Day −3 to 0 (6x), prophylactic, 5.8 Gy, reference group VL (POx1), 2): 1.49
- Dead (irradiation related deaths) [4, 8]: 3
- Irradiation related death rate, Rate (per 100 Days) [4, 8]: 0.44 per 100 Days
- Time at Risk [4, 8]: 680 days
- Time to 10% death, Time [4, 8]: 21 days
- Hazard ratio (Cox regression, risk of radiation induced death) ([4]; Group 5 ML (POx1): 50 mg/kg per os SID Day −2, −1, 0, prophylactic, 5.8 Gy, reference group VL (POx1), 2): 0.64
- Dead (irradiation related deaths) [4, 9]: 3
- Irradiation related death rate, Rate (per 100 Days) [4, 9]: 0.48 per 100 Days
- Time at Risk [4, 9]: 611 days
- Time to 10% death, Time [4, 9]: 23 days
- survival ([4]; Group 9 MH (POx1): 50 mg/kg per os SID Day 1, 2, 3, therapeutic, 6.0 Gy (LD50/30), control Group 8 56%): 86%
- Hazard ratio (Cox regression, risk of radiation induced death) ([4]; Group 9 MH (POx1): 50 mg/kg per os SID Day 1, 2, 3, therapeutic, 6.0 Gy, reference group VH (POx1), 8): 0.32
- frequency of normal posture score in comparison with control group ([5]; Day 15, Group 3 ML (IPx2): 25 mg/kg IP, Day −3 to 0 (6x), prophylactic, 5.8 Gy): did not result in such changes
- ARS posture score, most frequent grade (mode) ([5]; Day 15, Group 4 ML (POx2): 25 mg/kg per os, Day −3 to 0 (6x), prophylactic, 5.8 Gy): normal
- ARS posture score, most frequent grade (mode) ([5]; Day 15, Group 5 ML (POx1): 50 mg/kg per os SID Day −2, −1, 0, prophylactic, 5.8 Gy): normal
- ARS coat grade ([5]; Day 21, Group 9 MH (POx1): 50 mg/kg per os SID Day 1, 2, 3, therapeutic, 6.0 Gy, control Group 8 mild (20%) and moderate (27%)): mostly normal
- frequency of normal posture score in comparison to control group 8 ([5]; Day 30, Group 9 MH (POx1): 50 mg/kg per os SID Day 1, 2, 3, therapeutic, 6.0 Gy): trend for the increased frequency of normal posture score
- Supporting variable: ARS scores (trend) [5, 6]: −
- Supporting variable: ARS scores (trend) [5, 8]: +
- Supporting variable: ARS scores (trend) [5, 9]: +
